Consider 1 molecule from US20230248659A1, “IMMUNE SUPPRESSING NANOPARTICLES FOR ROBUST SENSITIZATION OF DRUG-RESISTANT CANCER” (King Abdulaziz City for Science and Technology ( KACST), priority 2021, published 2023).

The assay concerns MDA-MB-231 cells. Nature of the assay: LPS-mediated DOX resistance, AlamarBlue cell viability assay. The settings on record: Homo sapiens. The class given is cell-based. As to the method: LPS ability to mediate DOX-resistance was examined to simulate the MDR phenotype of MDA-MB-231. Herein, there is compared the sensitivity of non-stimulated MDA-MB-231 cells and LPS-stimulated cells at an optimized migratory concentration of LPS (20 µg/mL) to DOX treatment. AlamarBlue cell viability assay was used to evaluate the ability of LPS activation to induce DOX resistance. […] On the contrary, LPS-stimulated cells were 64±4% viable after 24 hr of DOX-treatment. Remarkably, pretreatment with LPS for 24 hr was clearly able to reduce chemosensitivity, lessen DOX cytotoxicity, and increase cell survival approximately to 6-fold (p-value <0.0005) after 48 hr treatment. These quantitative results provide strong evidence of inflammation-based MDR mechanism specifically to DOX treatment in MDA-MB-231 cells.
MDA-MB-231 cells were plated out in 96-well tissue culture plates at 1 ×10^4 cells per well and treated with or without LPS at concentration of (20 µg/mL) for 24 hr. Cells were then left untreated or treated simultaneously with (0.67 µg/mL) of the chemotherapeutic drug (DOX) and various doses of CS-TPP-HA-AGP NPs (50, 100, and 300 µg/ml). After further incubation for 48 or 72 hr, Cells were subjected to AlamarBlue cell viability assay. […] Fluorescence spectra were recorded at λex:550, λem:600 using BioTek Cytation 5™ multi-mode Microplate Reader-Gen5™ software.

Like-named read-outs stand apart in the source and are kept apart here.

One may read the viability as a read-out of living cells in per cent, often relative to untreated cells. As to `COc1cccc2c1C(=O)c1c(O)c3c(c(O)c1C2=O)C[C@@](O)(C(=O)CO)C[C@@H]3O[C@H]1C[C@H](N)[C@H](O)[C@H](C)O1` [DOX, doxorubicin], the viability at 0.67 µg/mL turned out to be 64 ± 4% (MDA-MB-231, 24 h, read-out: cell viability) and 11 ± 10% (MDA-MB-231, read-out: cell viability).
